This note sets out measurements from patent US8461305B2, “L-fucose α1→6 specific lectin” (J-Oil Mills, Inc., priority 2008, dated 2013).

Some results are limits rather than exact numbers.

This assay in a line: hemagglutinating inhibition test with sugars (sugar binding specificity). Format: cell-based. The text has this: The sugar binding specificity of lectin also can be confirmed by using erythrocytes that can be specifically agglutinated by the lectin to investigate the sugar type that may inhibit the agglutination of the erythrocytes and the concentration thereof.
Various monosaccharides, oligosaccharides, and polysaccharides shown in Table 2 and glycoproteins shown in Table 3 were subjected to hemagglutinating inhibition test to evaluate PTL of Example 1 and the SRL of Example 2 with regard to the sugar binding specificity.
On a 96 well U-bottom microtiter plate, double dilution series of 10 μl of monosaccharide, oligosaccharide, polysaccharide, and glycoprotein solutions were prepared. Then, lectin solution adjusted in advance to have titer 4 was added in an amount of 10 μl to the respective wells. Then, the plate was subjected to a still-standing at a room temperature for one hour for sensitization. Then, 10 μl of 4%-red blood cell suspension was added to the respective wells and the plate was further subjected to a still-standing at a room temperature for one hour. […] The lowest concentration showing the inhibition was assumed as the minimum inhibition concentration. The lower the minimum inhibition concentration is, the higher the specificity to lectin is.
For comparison, the sugar binding specificity was evaluated using the following commercially-available lectins: Comparison Example 1: AAL (SEIKAGAKU BIOBUSINESS CORPORATION—J-OIL MILLS, Inc.), Comparison Example 2: AOL (TOKYO CHEMICAL INDUSTRY CO., LTD.—Gekkeikan Sake Company, Ltd.), Comparison Example 3: LCA (SEIKAGAKU BIOBUSINESS CORPORATION—J-OIL MILLS, Inc.), and Comparison Example 4: PSA (SEIKAGAKU BIOBUSINESS CORPORATION—J-OIL MILLS, Inc.).

The mark [1] stands for this setting: inhibitor: N-Acetylneuraminic acid.
Setting [2] is: inhibitor: N-acetylgalactosamine.
[3] abbreviates: inhibitor: N-glycolylneuraminic acid.

For the molecule “Pholiota terrestris lectin [PTL, novel L-fucose α1→6 specific lectin purified from the mushroom Pholiota terrestris]”, the “minimum inhibition concentration of hemagglutination” value (from here on “minimum inhibition concentration”) reads like this: (inhibitor: Fructose) above 100 mM; (inhibitor: Galactose) above 100 mM; (inhibitor: Glucose) above 100 mM; (inhibitor: L-fucose) above 100 mM; (inhibitor: Lactose) above 6 mM; (inhibitor: Maltose) above 100 mM. The “minimum inhibition concentration” value is, setting by setting: (inhibitor: Mannose) above 100 mM; (inhibitor: Melibiose) above 100 mM; (inhibitor: Metyl α-mannoside) above 100 mM; under setting [1], above 100 mM; under setting [2], above 100 mM; (inhibitor: N-acetylglucosamine) above 100 mM. In addition, the “minimum inhibition concentration” value reads like this: under setting [3], above 100 mM; (inhibitor: Raffinose) above 100 mM; (inhibitor: Rhamnose) above 100 mM; (inhibitor: Serial lactose) above 6 mM; (inhibitor: Sucrose) above 100 mM; (inhibitor: Xylose) above 100 mM.

As to “Stropharia rugosoannulata lectin [SRL, novel L-fucose α1→6 specific lectin purified from the mushroom Stropharia rugosoannulata]”, the “minimum inhibition concentration” value runs as follows: (inhibitor: Fructose) above 100 mM; (inhibitor: Galactose) above 100 mM; (inhibitor: Glucose) above 100 mM; (inhibitor: L-fucose) above 100 mM; (inhibitor: Lactose) above 6 mM; (inhibitor: Maltose) above 100 mM. Also, the “minimum inhibition concentration” value (inhibitor: Mannose) is on record as above 100 mM; the “minimum inhibition concentration” value (inhibitor: Melibiose) was above 100 mM; the “minimum inhibition concentration” value (inhibitor: Metyl α-mannoside) was above 100 mM; the “minimum inhibition concentration” value under setting [1] is given as above 100 mM; the “minimum inhibition concentration” value under setting [2] was above 100 mM; the “minimum inhibition concentration” value (inhibitor: N-acetylglucosamine) is reported as above 100 mM. Besides, the “minimum inhibition concentration” value is above 100 mM under setting [3]; above 100 mM (inhibitor: Raffinose); above 100 mM (inhibitor: Rhamnose); above 6 mM (inhibitor: Serial lactose); above 100 mM (inhibitor: Sucrose); above 100 mM (inhibitor: Xylose).

Regarding “Aspergillus oryzae lectin [AOL, reference compound]”, the “minimum inhibition concentration” value is 25 mM (inhibitor: Fructose); above 100 mM (inhibitor: Galactose); above 100 mM (inhibitor: Glucose); 0.391 mM (inhibitor: L-fucose); above 6 mM (inhibitor: Lactose); above 100 mM (inhibitor: Maltose). Moreover, the “minimum inhibition concentration” value (inhibitor: Mannose) was 100 mM; the “minimum inhibition concentration” value (inhibitor: Melibiose) is above 100 mM; the “minimum inhibition concentration” value (inhibitor: Metyl α-mannoside) is given as above 100 mM; the “minimum inhibition concentration” value under setting [1] is recorded as above 100 mM; the “minimum inhibition concentration” value under setting [2] is given as above 100 mM; the “minimum inhibition concentration” value (inhibitor: N-acetylglucosamine) was above 100 mM. Also, the “minimum inhibition concentration” value was above 100 mM under setting [3]; above 100 mM (inhibitor: Raffinose); 100 mM (inhibitor: Rhamnose); above 6 mM (inhibitor: Serial lactose); above 100 mM (inhibitor: Sucrose); above 100 mM (inhibitor: Xylose).

B1: Pisum sativum agglutinin (protein)
chain: TETTSFLITKFSPDQQNLIFQGDGYTTKEKLTLTKAVKNTVGRALYSSPIHIWDRETGNVANFVTSFTFVINAPNSYNVADGFTFFIAPVDTKPQTGGGYLGVFNSAEYDKTTQTVAVEFDTFYNAAWDPSNRDRHIGIDVNSIKSVNTKSWKLQNGEEANVVIAFNAATNVLTVSLTYPNSLEEENVTSYTLSDVVSLKDVVPEWVRIGFSATTGAEYAAHEVLSWSFHSELSGTSSSKQAADA
In the case of B1, the “minimum inhibition concentration” value was above 100 mM (inhibitor: Fructose); above 100 mM (inhibitor: Galactose); above 100 mM (inhibitor: Glucose); above 100 mM (inhibitor: L-fucose); above 6 mM (inhibitor: Lactose); above 100 mM (inhibitor: Maltose). Moreover, the “minimum inhibition concentration” value by setting is: (inhibitor: Mannose) 50 mM; (inhibitor: Melibiose) above 100 mM; (inhibitor: Metyl α-mannoside) 50 mM; under setting [1], above 100 mM; under setting [2], above 100 mM; (inhibitor: N-acetylglucosamine) above 100 mM. For the same molecule, the “minimum inhibition concentration” value reads like this: under setting [3], above 100 mM; (inhibitor: Raffinose) above 100 mM; (inhibitor: Rhamnose) above 100 mM; (inhibitor: Serial lactose) above 6 mM; (inhibitor: Sucrose) above 100 mM; (inhibitor: Xylose) above 100 mM.

B2: Aleuria aurantia lectin (protein)
chain: PTEFLYTSKIAAISWAATGGRQQRVYFQDLNGKIREAQRGGDNPWTGGSSQNVIGEAKLFSPLAAVTWKSAQGIQIRVYCVNKDNILSEFVYDGSKWITGQLGSVGVKVGSNSKLAALQWGGSESAPPNIRVYYQKSNGSGSSIHEYVWSGKWTAGASFGSTVPGTGIGATAIGPGRLRIYYQATDNKIREHCWDSNSWYVGGFSASASAGVSIAAISWGSTPNIRVYWQKGREELYEAAYGGSWNTPGQIKDASRPTPSLPDTFIAANSSGNIDISVFFQASGVSLQQWQWISGKGWSIGAVVPTGTPAGW
Consider B2, for which the “minimum inhibition concentration” value is listed as 25 mM (inhibitor: Fructose); above 100 mM (inhibitor: Galactose); above 100 mM (inhibitor: Glucose); 0.391 mM (inhibitor: L-fucose); above 6 mM (inhibitor: Lactose); above 100 mM (inhibitor: Maltose). Moreover, the “minimum inhibition concentration” value runs as follows: (inhibitor: Mannose) 50 mM; (inhibitor: Melibiose) above 100 mM; (inhibitor: Metyl α-mannoside) above 100 mM; under setting [1], above 100 mM; under setting [2], above 100 mM; (inhibitor: N-acetylglucosamine) above 100 mM. Moreover, the “minimum inhibition concentration” value runs as follows: under setting [3], above 100 mM; (inhibitor: Raffinose) above 100 mM; (inhibitor: Rhamnose) above 100 mM; (inhibitor: Serial lactose) above 6 mM; (inhibitor: Sucrose) above 100 mM; (inhibitor: Xylose) above 100 mM.

B3: Lens culinaris agglutinin (protein)
chain 1: TETTSFSITKFSPDQKNLIFQGDGYTTKGKLTLTKAVKSTVGRALYSTPIHIWDRDTGNVANFVTSFTFVIDAPSSYNVADEFTFFIAPVDTKPQTGGGYLGVFNSKEYDKTSQTVAVEFDTFYNAAWDPSNKERHIGIDVNSIKSVNTKSWNLQNGERANVVIAFNAATNVLTVTLTYP
chain 2: VTSYTLNEVVPLKDVVPEWVRIGFSATTGAEFAAHEVHSWSFHSELGGTSSS
As to B3, the “minimum inhibition concentration” value is on record as above 100 mM (inhibitor: Fructose); above 100 mM (inhibitor: Galactose); above 100 mM (inhibitor: Glucose); above 100 mM (inhibitor: L-fucose); above 6 mM (inhibitor: Lactose); 100 mM (inhibitor: Maltose). The “minimum inhibition concentration” value runs as follows: (inhibitor: Mannose) 50 mM; (inhibitor: Melibiose) above 100 mM; (inhibitor: Metyl α-mannoside) 50 mM; under setting [1], above 100 mM; under setting [2], above 100 mM; (inhibitor: N-acetylglucosamine) above 100 mM. In addition, the “minimum inhibition concentration” value is on record as above 100 mM under setting [3]; above 100 mM (inhibitor: Raffinose); above 100 mM (inhibitor: Rhamnose); above 6 mM (inhibitor: Serial lactose); above 100 mM (inhibitor: Sucrose); above 100 mM (inhibitor: Xylose).
